Earlier results in patent US11311591B2, “Use of copaifera oleoresin in pathologies of the prostate” (PIERRE FABRE MEDICAMENT, priority 2017, dated 2022).
pIC50: −log10 of the molar value.

Key:
5αR1 = molecular target: T1, 5αR1 (Homo sapiens, UniProt P18405)
T1 sequence (P18405 1-259): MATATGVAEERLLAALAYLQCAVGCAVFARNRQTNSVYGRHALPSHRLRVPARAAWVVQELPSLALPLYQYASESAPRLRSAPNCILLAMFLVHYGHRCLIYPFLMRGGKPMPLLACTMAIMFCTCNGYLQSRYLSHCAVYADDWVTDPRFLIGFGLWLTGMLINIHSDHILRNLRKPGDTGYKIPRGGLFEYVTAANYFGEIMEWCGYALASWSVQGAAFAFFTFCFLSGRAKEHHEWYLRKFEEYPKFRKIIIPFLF

[1] = system: serum dihydrotestosterone
HSP27 = HSP27 (Homo sapiens, UniProt P04792); conditions: prior art, Phytochemistry Letters 10 (2014)
HSP27, sequence (P04792 whole entry): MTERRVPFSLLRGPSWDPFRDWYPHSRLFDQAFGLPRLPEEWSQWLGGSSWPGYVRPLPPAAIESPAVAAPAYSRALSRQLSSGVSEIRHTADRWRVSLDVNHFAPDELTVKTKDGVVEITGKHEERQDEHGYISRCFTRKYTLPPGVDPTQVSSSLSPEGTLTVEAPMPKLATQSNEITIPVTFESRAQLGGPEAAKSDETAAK

| SMILES | pIC50 (5αR1) | reduction of mean serum dihydrotestosterone levels [1] | inhibition of HSP27 (in words) (HSP27) |
| --- | --- | --- | --- |
| CC(C)(C)NC(=O)[C@H]1CC[C@H]2[C@@H]3CC[C@H]4NC(=O)C=C[C@]4(C)[C@H]3CC[C@]12C [Finasteride] | 6.44 | 70.8% | – |
| C[C@]12C=CC(=O)N[C@@H]1CC[C@@H]1[C@@H]2CC[C@]2(C)[C@@H](C(=O)Nc3cc(C(F)(F)F)ccc3C(F)(F)F)CC[C@@H]12 [dutasteride] | 8.22 | 94.7% | – |
| CC1CCC2(C)C(C(=O)O)=CCCC2C1(C)CCc1ccoc1 (centres unmarked) [hardwickiic acid, Hardwickiic acid] | – | – | inhibits HSP27 |
